A short description of data set [1]: Water solubility of compound at pH 7.4. It counts as physicochemical.
Data set [2] has as its system Human immunodeficiency virus 1. The data set is described as follows: Antiviral activity against HIV1 harboring RT Y188L mutant infected in human MT4 cells assessed as inhibition of virus-induced cytopathic effect incubated for 5 days by MTT assay. It counts as functional, organism-based. Particulars: Human immunodeficiency virus 1, MT4, 120 h. (In general: Damage to the host cells serves as the signal in cytopathic effect assays.)

A short description of data set [3]: Water solubility of compound at pH 2. It counts as physicochemical.
The test system of data set [4] is Human immunodeficiency virus 1. The data set is described as follows: Antiviral activity against HIV1 harboring K103N mutant infected in human MT4 cells assessed as inhibition of virus-induced cytopathic effect incubated for 5 days by MTT assay. It counts as functional, organism-based. Particulars: Human immunodeficiency virus 1, MT4, 120 h.
Data set [5] can be described thus: Cytotoxicity against mock-infected human MT4 cells incubated for 5 days by MTT assay. It counts as cell-based. Particulars: time 5 day. On the technique in general: Tetrazolium assays rely on reduction of a dye to a coloured formazan, in cell work by metabolically active cells.
The test system of data set [6] is Human immunodeficiency virus 1. Kind of data set: Antiviral activity against HIV1 harboring RT L100I mutant infected in human MT4 cells assessed as inhibition of virus-induced cytopathic effect incubated for 5 days by MTT assay. Particulars: Human immunodeficiency virus 1, MT4, 120 h. The class given is functional, organism-based.
The subject of data set [7] is Human immunodeficiency virus 1. Kind of data set: Antiviral activity against wild type HIV-1 IIIB infected in human MT4 cells assessed as inhibition of virus-induced cytopathic effect measured after 5 days by MTT assay. The class given is functional, organism-based. Particulars: Human immunodeficiency virus 1, IIIB, MT4, 120 h.
Data set [8] deals with Human immunodeficiency virus 1. The data set is described as follows: Antiviral activity against HIV1 harboring RT E138K mutant infected in human MT4 cells assessed as inhibition of virus-induced cytopathic effect incubated for 5 days by MTT assay. It counts as functional, organism-based. The note with it: Human immunodeficiency virus 1, MT4, 120 h.
Data set [9] has as its system Human immunodeficiency virus 1. Kind of data set: Antiviral activity against HIV1 harboring RT RES056 mutant infected in human MT4 cells assessed as inhibition of virus-induced cytopathic effect incubated for 5 days by MTT assay. It counts as functional, organism-based. The note with it: Human immunodeficiency virus 1, MT4, 120 h.
Data set [10] can be described thus: Selectivity index, ratio of CC50 for human MT4 cells to EC50 for Antiviral activity against HIV-1 IIIB infected in human MT4 cells. The class given is toxicity, cell-based. Particulars: read-out: Selectivity Index.
The test system of data set [11] is Human immunodeficiency virus 1. Kind of data set: Antiviral activity against HIV1 harboring RT F227L/V106A mutant infected in human MT4 cells assessed as inhibition of virus-induced cytopathic effect incubated for 5 days by MTT assay. The class given is functional, organism-based. Particulars: Human immunodeficiency virus 1, MT4, 120 h.
Data set [12] relates to Human immunodeficiency virus 1. The data set is described as follows: Antiviral activity against HIV1 harboring RT Y181C mutant infected in human MT4 cells assessed as inhibition of virus-induced cytopathic effect incubated for 5 days by MTT assay. Particulars: Human immunodeficiency virus 1, MT4, 120 h. It counts as functional, organism-based.
For data set [13], the target named is Human immunodeficiency virus type 1 reverse transcriptase (Human immunodeficiency virus 1, UniProt Q72547). The data set is described as follows: Inhibition of HIV-1 reverse transcriptase assessed as inhibition of biotin-dUTP incorporation into cDNA measured after 1 hr by ELISA. (ELISA stands for enzyme-linked immunosorbent assay.)
The subject of data set [14] is MT4. Kind of data set: Antiviral activity against wild type HIV-2 ROD infected in human MT4 cells assessed as inhibition of virus-induced cytopathic effect measured after 5 days by MTT assay. It counts as functional, cell-based. The note with it: Human immunodeficiency virus 2, ISOLATE ROD, time 5.0 day.
A short description of data set [15]: Water solubility of compound at pH 7. The class given is physicochemical.

Converted amounts (≈) assume the structure as drawn. The source made the active and inactive calls. No cut-off for these calls is given here.

On to `Cc1cc(C#CC=C2CCN(S(C)(=O)=O)CC2)cc(C)c1Oc1ccnc(Nc2ccc(C#N)cc2)n1`, for which the solubility in [1] worked out at 26.6 µg/mL (≈ 51.8 µM); in data set [3] it was 20.4 µg/mL (≈ 39.7 µM); in [15], 27.1 µg/mL (≈ 52.8 µM). The EC50 in [2] was 452 nM; in data set [4], 57 nM; in data set [6], 282 nM; in [7], 29 nM; in data set [8], 170 nM; in data set [9], over 5490 nM. The EC50 in [11] was over 5490 nM; in [12], 913 nM. In addition, in data set [5], the CC50 at 120 h turned out to be 5.49 µM. Also, the selectivity ratio in data set [10] came to 186. Further, the IC50 in data set [13] is 1980 nM. Moreover, the result in data set [14] was inactive.
For `Cc1cc(C#CC=C2CCNCC2)cc(C)c1Oc1ccnc(Nc2ccc(C#N)cc2)n1`, the solubility in data set [1] came to 67 µg/mL (≈ 154 µM); in data set [3] it was 47.3 µg/mL (≈ 109 µM); in data set [15], 60.5 µg/mL (≈ 139 µM). For the same compound, the EC50 in data set [2] was 211 nM; in data set [4] it was 39 nM; in [6], 231 nM; in data set [7], 16 nM; in data set [8] it was 204 nM; in data set [9] it was 1460 nM. For the same compound, the figures for the EC50 in data set [11] and in data set [12] were 1270 nM and 281 nM, respectively. This compound displayed a CC50 at 120 h in data set [5] of 4.81 µM. Moreover, the selectivity ratio in data set [10] turned out to be 294. Also, in data set [13], the IC50 was determined as 130 nM. The result in data set [14] was inactive.
As for `CCC(=O)N1CCC(=CC#Cc2cc(C)c(Oc3ccnc(Nc4ccc(C#N)cc4)n3)c(C)c2)CC1`, the solubility in data set [1] was determined as 66.5 µg/mL (≈ 135 µM); in data set [3] it was 64.7 µg/mL (≈ 132 µM); in data set [15], 62.2 µg/mL (≈ 127 µM). In addition, the EC50 in data set [2] was 382 nM; in [4] it was 57 nM; in [6] it was 253 nM; in data set [7] it was 22 nM; in [8], 171 nM; in data set [9] it was over 4420 nM. For the same compound, the EC50 is 1300 nM in [11] and 772 nM in [12]. The compound further gave a CC50 at 120 h in data set [5] of 4.42 µM. In addition, the selectivity ratio in [10] came to 201. Also, the IC50 in data set [13] stood at 2980 nM. The result in data set [14] was inactive.

By solubility is commonly meant how much of the substance goes into solution per volume. As a reminder, the EC50 is the concentration giving half of the maximal effect. The CC50 is the concentration at which the toxic effect on the cells reaches its halfway point. Low readings indicate greater toxicity to the cells, high ones lower toxicity to the cells. By IC50 is commonly meant the concentration that inhibits the measured activity by half.

The record behind these values is ChEMBL document CHEMBL4811290, “Exploiting the hydrophobic channel of the NNIBP: Discovery of novel diarylpyrimidines as HIV-1 NNRTIs against wild-type and K103N mutant viruses” (Bioorg Med Chem, 2021).
